Key:
[1] = Impurity formation / standard stability testing (clarity, color, pH, assay, impurities); format: physicochemical; settings: Drug Substance
Source text: In order to further determine the stability of Formulations 1, 3A, 3B, 5A, 5B, 5C, 5D and 5E, the formulations were subjected to standard stability testing to determine impurity levels. The results are below in Tables 7-11.

[2] = Freeze/thaw stability testing; format: physicochemical; settings: Drug Substance
Source text: The results are below in Tables 13-18.

Assay (% of initial Conc) [1]: 100.70%
Total Impurities [1]: 0.00%
Physical appearance ([1]; first line of cell (clarity)): clear,
Physical appearance ([1]; second line of cell (color)): colorless
Color [2]: colorless
Physical appearance [2]: clear
Structure (SMILES): CCCc1nn(C)c2c(=O)[nH]c(-c3cc(S(=O)(=O)N4CCN(C)CC4)ccc3OCC)nc12 [Drug Substance, Sildenafil base]
Impurity A [1]: BQL (BQL = Below Quantification Limit (Limit of Quantification = 0.05%))
Impurity B [1]: ND (ND = Not Detected (Limit of Detection = 0.01%))
Impurity C [1]: BQL (BQL = Below Quantification Limit (Limit of Quantification = 0.05%))
Impurity D [1]: BQL (BQL = Below Quantification Limit (Limit of Quantification = 0.05%))
Unknown Impurity RRT 0.24 [1]: ND (ND = Not Detected (Limit of Detection = 0.01%))
Unknown Impurity RRT 0.61 [1]: ND (ND = Not Detected (Limit of Detection = 0.01%))

Reference: patent publication US10111833B2, “Sildenafil sublingual spray formulations” (Insys Development Company, Inc., priority 2015, dated 2018)
